Here are results for 18 molecules from publication PMC7339578, “Multiple circulating alkaloids and saponins from intravenous Kang-Ai injection inhibit human cytochrome P450 and UDP-glucuronosyltransferase isozymes: potential drug–drug interactions” (Chinese Medicine, 2020).

Broadly, the Cmax is the highest concentration seen after dosing.

What all share (assay type): in vivo, Sprague–Dawley rats
The nature of series [1]: Urinary (renal) excretion in rats after a 30-min infusion of Kang-Ai injection. As for the experimental part:
(§1) For urine sampling, the rats were housed singly in metabolic cages. And then, the urine samples were collected at 0–4, 4–8 and 8–12 h after starting infusion and were weighed. Likewise, bile samples were also collected at 0–3, 3–6, 6–9 and 9–12 h after starting infusion and were weighed. The urine and bile collection tubes were all frozen at − 80 °C.
(§2) Pharmacokinetic parameters were estimated by non-compartmental analysis using WinNonlin 6.3 software (Pharsight, NC, US). Data are presented as the mean ± SD (n = 3). The area under the concentration–time curve up to the last measured point in time (AUC0-t) was calculated using the trapezoidal rule. The total plasma clearance (CLtot, p) was calculated by dividing the compound dose by the AUC0-∞, and the distribution volume at steady state (VSS) was estimated by multiplying the CLtot, p by the mean residence time (MRT). The renal excretory clearance (CLR) and hepatobiliary (CLB) was determined by dividing the cumulative amount excreted into urine (Cum.Ae-U) and bile (Cum.Ae-B) by the plasma AUC0-∞, respectively. The fractions of dose excreted into urine (fe-U) and the fractions of dose excreted into bile (fe-B) were established using the relationship Cum.Ae-U/Dose and Cum.Ae-B/Dose, respectively. Mean differences between treatment and control groups were analyzed by two-tailed unpaired Student’s t test by Graphpad Prism V5 software (SanDiego, CA). The level of significance was set at p < 0.05 (∗), p < 0.01 (∗∗) or p < 0.001 (∗∗∗).

A short description of series [2]: Biliary (hepatobiliary) excretion in rats after a 30-min infusion of Kang-Ai injection. On the procedure:
as §1, §2

Series [3] can be described thus: Plasma pharmacokinetics in rats after a 30-min intravenous infusion of Kang-Ai injection. To be noted: rat, in vivo, iv. On the procedure:
Specific pathogen free (SPF) grade male Sprague–Dawley rats (250 ± 20) g were provided by the Experimental Animal Center of Zhengzhou University (Zhengzhou, China). These rats were kept in a designated animal room at constant temperature (22 ± 2) °C and humidity (50 ± 20) % with 12 h of light/dark per day and free access to water and food. All protocols of animal experiments were approved in accordance with the Regulations of Experimental Animal Administration issued by the Ethics Review Committee for Animal Experimentation of Jinan University (Ethical Review NO. 20190301010). Prior to the experiments, the rats were fasted for 12 h but with free access to water. After study use, the rats were euthanized with CO2 gas.
The rats in this study all received a single 30-min intravenous infusion of Kang-Ai injection via the tail veins using TYD01-02 infusion pumps (Lead Fluid, Baoding, China). The dose was derived from the label daily dose of Kang-Ai injection (60 mL/person, once daily) according to dose normalization by body surface area. For plasma pharmacokinetic studies, the rats were randomly received a single intravenous 30 min-bolus dose at 6 mL/kg. Blood samples (100 μL) were collected from the rats’ external jugular veins into heparinized polypropylene tubes at 5, 15, 30, 45 min, and 1, 1.5, 2, 3, 4, 6, 8, 12 h. After gently shaking for 10 s, the blood samples were centrifuged at 13000 g for 10 min to yield plasma samples, which were kept frozen at − 80 °C until analysis.
as §2

[4] abbreviates: rat urine 0–12 h, Kang-Ai injection 6 mL/kg iv.
Setting [5] is: rat bile 0–12 h, Kang-Ai injection 6 mL/kg iv.
The mark [6] stands for this setting: male, Sprague-Dawley, rat, in vivo, iv.

Values joined by “and” are separate entries in the source; they are usually repeats but may differ in a detail not shown here. Equal values may be shown once.

As to `CC(C)=CCC[C@](C)(O[C@@H]1O[C@H](CO)[C@@H](O)[C@H](O)[C@H]1O)[C@H]1CC[C@]2(C)[C@@H]1[C@H](O)C[C@@H]1[C@@]3(C)CC[C@H](O)C(C)(C)[C@@H]3[C@@H](O[C@@H]3O[C@H](CO)[C@@H](O)[C@H](O)[C@H]3O[C@@H]3OC[C@@H](O)[C@H](O)[C@H]3O)C[C@]12C` [Compound C10, Ginsenoside R1], in series [1] (setting [4]), the “fe-U,0–12h (fraction of dose excreted into urine)” value is listed as 40.28 ± 5.48%.
Turning to `CC(C)(O[C@@H]1O[C@H](CO)[C@@H](O)[C@H](O)[C@H]1O)[C@@H]1CC[C@](C)([C@H]2[C@@H](O)C[C@@]3(C)[C@@H]4C[C@H](O)[C@H]5C(C)(C)[C@@H](O[C@@H]6OC[C@@H](O)[C@H](O)[C@H]6O)CC[C@@]56C[C@@]46CC[C@]23C)O1` [Compound B1, Isoastragaloside IV], the “fe-B,0–12h (fraction of dose excreted into bile)” value in series [2] (rat, in vivo, iv) is on record as 30.40 ± 3.79%.
Still for that read-out and setting: next, `CC(C)=CC/C=C(/C)[C@H]1CC[C@]2(C)[C@@H]1[C@H](O)C[C@@H]1[C@@]3(C)CC[C@H](O)C(C)(C)[C@@H]3[C@@H](O[C@@H]3O[C@H](CO)[C@@H](O)[C@H](O)[C@H]3O[C@@H]3O[C@@H](C)[C@H](O)[C@@H](O)[C@H]3O)C[C@]12C` [Compound E4, Ginsenoside F4]: 29.36 ± 3.14%.
Take 9α-hydroxysophoramine [Compound A4]: the “fe-B,0–12h (fraction of dose excreted into bile)” value in series [2] (rat, in vivo, iv) stood at 11.14 ± 1.05%. Moreover, in series [1] (rat, in vivo, iv), the “fe-U,0–12h (fraction of dose excreted into urine)” value worked out at 42.80 ± 14.69%.
`O=C1C=CC[C@@H]2[C@H]3C[C@H](O)CN4CCC[C@@H](CN12)[C@@H]34` [Compound A6, 9α-hydroxysophocarpine]: in series [3], the “CLtot, p” value was 47.70 ± 10.72 mL/h; the highest level (Cmax) was 344 ± 40.7 nM; the VSS is reported as 93.63 ± 24.86 mL; the t1/2 was 2.16 ± 1.28 h. Besides, in series [2] (rat, in vivo, iv), the “CLB (hepatobiliary clearance)” value is on record as 5.86 ± 1.10 mL/h and the “fe-B,0–12h (fraction of dose excreted into bile)” value was determined as 12.50 ± 1.32%. For the same molecule, in series [1] (rat, in vivo, iv), the “CLR (renal excretory clearance)” value turned out to be 6.23 ± 2.97 mL/h and the “fe-U,0–12h (fraction of dose excreted into urine)” value is recorded as 12.92 ± 4.98%.
With `O=c1cccc([C@@H]2C[C@H](CO)[C@H]3CCCCN3C2)[nH]1` [Compound A8, Mamanine], in series [3], the “CLtot, p” value is on record as 7.93 ± 1.77 mL/h; the Cmax came out at 421 ± 68.1 nM; the VSS amounted to 16.89 ± 5.16 mL; the t1/2 is 2.32 ± 1.03 h. Further, in series [2] (rat, in vivo, iv), the “CLB (hepatobiliary clearance)” value is on record as 2.67 ± 0.46 mL/h and the “fe-B,0–12h (fraction of dose excreted into bile)” value was 34.12 ± 4.23%. Also, in series [1] (rat, in vivo, iv), the “CLR (renal excretory clearance)” value is given as 1.23 ± 0.50 mL/h and the “fe-U,0–12h (fraction of dose excreted into urine)” value is reported as 15.28 ± 5.11%.
Turning to `O=C1CCC[C@@H]2[C@H]3CCCN4CCC[C@@](O)(CN12)[C@@H]34` [Compound A9, Sophoranol], in series [3], the “CLtot, p” value is recorded as 56.05 ± 22.70 mL/h; the Cmax stood at 397 ± 49.7 nM; the VSS was found to be 53.50 ± 7.71 mL; the t1/2 worked out at 0.82 ± 0.37 h. Moreover, in series [2] (rat, in vivo, iv), the “CLB (hepatobiliary clearance)” value was determined as 0.68 ± 0.16 mL/h and the “fe-B,0–12h (fraction of dose excreted into bile)” value came out at 1.27 ± 0.20%. In series [1] (rat, in vivo, iv), the “CLR (renal excretory clearance)” value was determined as 34.24 ± 17.17 mL/h and the “fe-U,0–12h (fraction of dose excreted into urine)” value came out at 59.77 ± 8.80%.
Take `CC(C)=CCC[C@](C)(O[C@@H]1O[C@H](CO)[C@@H](O)[C@H](O)[C@H]1O)[C@H]1CC[C@]2(C)[C@@H]1[C@H](O)C[C@@H]1[C@@]3(C)CC[C@H](O[C@@H]4O[C@H](CO)[C@@H](O)[C@H](O)[C@H]4O)C(C)(C)[C@@H]3CC[C@]12C` [Compound D1, Ginsenoside F2]: the “fe-B,0–12h (fraction of dose excreted into bile)” value in series [2] (setting [5]) is 7.46% and 7.46 ± 2.11%.
The same measure, in the same setting: next, `CC(C)=CC/C=C(\C)[C@H]1CC[C@]2(C)[C@@H]1[C@H](O)C[C@@H]1[C@@]3(C)CC[C@H](O)C(C)(C)[C@@H]3[C@@H](O[C@@H]3O[C@H](CO)[C@@H](O)[C@H](O)[C@H]3O)C[C@]12C` [Compound E2, Ginsenoside Rh4]: 46.95 ± 6.46%.
On to `C=C(CCC=C(C)C)[C@H]1CC[C@]2(C)[C@@H]1[C@H](O)C[C@@H]1[C@@]3(C)CC[C@H](O)C(C)(C)[C@@H]3[C@@H](O[C@@H]3O[C@H](CO)[C@@H](O)[C@H](O)[C@H]3O)C[C@]12C` [Compound E1, Ginsenoside Rk3], for which the “fe-B,0–12h (fraction of dose excreted into bile)” value in series [2] (rat, in vivo, iv) is 27.80 ± 7.01%.
With `CC(C)(O[C@@H]1O[C@H](CO)[C@@H](O)[C@H](O)[C@H]1O)[C@@H]1CC[C@](C)([C@H]2[C@@H](O)C[C@@]3(C)[C@@H]4C[C@H](O)[C@H]5C(C)(C)[C@@H](O[C@@H]6OC[C@@H](O)[C@H](O)[C@H]6O[C@@H]6O[C@H](CO)[C@@H](O)[C@H](O)[C@H]6O)CC[C@@]56C[C@@]46CC[C@]23C)O1` [Compound B5, Astragaloside V], the “fe-U,0–12h (fraction of dose excreted into urine)” value in series [1] (rat, in vivo, iv) is reported as 51.36 ± 7.44%.
As for `CC(C)=CCC[C@](C)(O[C@@H]1O[C@H](CO[C@@H]2OC[C@H](O)[C@H](O)[C@H]2O)[C@@H](O)[C@H](O)[C@H]1O)[C@H]1CC[C@]2(C)[C@@H]1[C@H](O)C[C@@H]1[C@@]3(C)CC[C@H](O)C(C)(C)[C@@H]3[C@@H](O)C[C@]12C` [Compound C4, Ginsenoside F3], the “fe-B,0–12h (fraction of dose excreted into bile)” value in series [2] (setting [6]) is on record as 67.93 ± 8.80%. Moreover, the “fe-U,0–12h (fraction of dose excreted into urine)” value in series [1] (setting [6]) came to 24.46 ± 3.37%.
For the molecule `CC(C)(O)[C@@H]1CC[C@](C)([C@H]2[C@@H](O)C[C@@]3(C)[C@@H]4C[C@H](O[C@@H]5O[C@H](CO)[C@@H](O)[C@H](O)[C@H]5O)[C@H]5C(C)(C)[C@@H](O[C@@H]6OC[C@@H](O)[C@H](O)[C@H]6O[C@@H]6O[C@H](CO)[C@@H](O)[C@H](O)[C@H]6O)CC[C@@]56C[C@@]46CC[C@]23C)O1` [Compound B4, Astragaloside VI], the “fe-U,0–12h (fraction of dose excreted into urine)” value in series [1] (setting [4]) is 63.43 ± 11.75%.
With `CC(C)=CCC[C@](C)(O[C@@H]1O[C@H](CO[C@@H]2O[C@H](CO)[C@@H](O)[C@H](O)[C@H]2O)[C@@H](O)[C@H](O)[C@H]1O)[C@H]1CC[C@]2(C)[C@@H]1[C@H](O)C[C@@H]1[C@@]3(C)CC[C@H](O)C(C)(C)[C@@H]3[C@@H](O[C@@H]3O[C@H](CO)[C@@H](O)[C@H](O)[C@H]3O)C[C@]12C` [Compound C12, Notoginsenoside R3], the “fe-U,0–12h (fraction of dose excreted into urine)” value in series [1] (rat, in vivo, iv) is recorded as 36.16 ± 7.04%.
For the molecule `C=C(CCC=C(C)C)[C@H]1CC[C@]2(C)[C@@H]1[C@H](O)C[C@@H]1[C@@]3(C)CC[C@H](O)C(C)(C)[C@@H]3[C@@H](O[C@@H]3O[C@H](CO)[C@@H](O)[C@H](O)[C@H]3O[C@@H]3O[C@@H](C)[C@H](O)[C@@H](O)[C@H]3O)C[C@]12C` [Compound E3, Ginsenoside Rg6], the “fe-B,0–12h (fraction of dose excreted into bile)” value in series [2] (rat, in vivo, iv) stood at 31.31 ± 6.25%.
Turning to `CC(C)=CCC[C@](C)(O[C@@H]1O[C@H](CO)[C@@H](O)[C@H](O)[C@H]1O)[C@H]1CC[C@]2(C)[C@@H]1[C@H](O)C[C@@H]1[C@@]3(C)CC[C@H](O)C(C)(C)[C@@H]3[C@@H](O[C@@H]3O[C@H](CO)[C@@H](O)[C@H](O)[C@H]3O[C@@H]3O[C@H](CO)[C@@H](O)[C@H](O)[C@H]3O)C[C@]12C` [Compound C13, 20-Gluco-Ginsenoside Rf], the “fe-U,0–12h (fraction of dose excreted into urine)” value in series [1] (rat, in vivo, iv) is 38.72 ± 6.57%.
Same read-out and setting: as for `CC(C)=CCC[C@](C)(O[C@@H]1O[C@H](CO[C@@H]2O[C@@H](CO)[C@H](O)[C@H]2O)[C@@H](O)[C@H](O)[C@H]1O)[C@H]1CC[C@]2(C)[C@@H]1[C@H](O)C[C@@H]1[C@@]3(C)CC[C@H](O)C(C)(C)[C@@H]3[C@@H](O[C@@H]3O[C@H](CO)[C@@H](O)[C@H](O)[C@H]3O)C[C@]12C` [Compound C11, Ginsenoside Re4], the figure is 48.30 ± 10.27%.
As for `CC(C)=CCC[C@](C)(O[C@@H]1O[C@H](CO)[C@@H](O)[C@H](O)[C@H]1O)[C@H]1CC[C@]2(C)[C@@H]1[C@H](O)C[C@@H]1[C@@]3(C)CC[C@H](O)C(C)(C)[C@@H]3[C@@H](O)C[C@]12C` [Compound C2, Ginsenoside F1], the “fe-B,0–12h (fraction of dose excreted into bile)” value in series [2] (setting [5]) amounted to 24.20 ± 4.93%. In addition, the “fe-U,0–12h (fraction of dose excreted into urine)” value in series [1] (setting [4]) was determined as 23.37 ± 7.94%.
